Here are results for 12 molecules from patent publication US10213415B2, “Compounds as opioid receptor modulators” (JANSSEN PHARMACEUTICA NV, priority 2004, dated 2019).

For one assay, the target named is T1, human mu opioid receptor (Homo sapiens, UniProt P35372).
T1 construct: purchased Perkin Elmer RBHOMM400UA; host or cells: Chinese Hamster Ovary cells (recombinant expression)
The assay is described as follows: Human Mu Opioid Receptor Binding Assay (CHO membranes, 3H-Damgo). The conditions noted are these: read-out: hKi μ. The method, boiled down:
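Radioligand displacement of ³H-Damgo (diluted to 3.6 nM pre-mix) from recombinant human mu receptor in CHO membranes, 2 h, room temperature, 50 mM Tris pH 7.5 with 5 mM MgCl2. Bound label read by filtration and scintillation counting; 1 μM unlabelled Damgo defines nonspecific binding.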

The next assay addresses T2, delta opioid receptor (Rattus norvegicus, UniProt P33533).
T2 construct: from tissue; host or cells: forebrain of male Wistar rats
Nature of the assay: Rat Brain Delta Opioid Receptor Binding Assay ([3H]DPDPE). The conditions noted are these: rat forebrain membranes, margin of error 10-20%, read-out: r Ki δ. How it is done:
(§1) Male, Wistar rats (150-250 g, VAF, Charles River, Kingston, N.Y.) are killed by cervical dislocation, and their brains removed and placed immediately in ice cold Tris HCl buffer (50 mM, pH 7.4). The forebrains are separated from the remainder of the brain by a coronal transection, beginning dorsally at the colliculi and passing ventrally through the midbrain-pontine junction. After dissection, the forebrains are homogenized in Tris buffer in a Teflon® glass homogenizer. The homogenate is diluted to a concentration of 1 g of forebrain tissue per 80 mL Tris and centrifuged at 39,000×g for 10 min. The pellet is resuspended in the same volume of Tris buffer containing 5 mM MgCl2 with several brief pulses from a Polytron homogenizer. This particulate preparation is used for the delta opioid binding assays. Following incubation with the delta selective peptide ligand ˜4 nM [^3H]DPDPE at 25° C. for 2.5 h in a 96-well plate with total volume of 1 mL, the plate contents are filtered through Wallac filtermat B sheets on a Tomtec 96-well harvester. The filters are rinsed three times with 2 mL of 10 mM HEPES (pH 7.4), and dried in a microwave oven 2 min twice. To each sample area 2×50 μL of Betaplate Scint scintillation fluid (LKB) is added and analyzed on a LKB (Wallac) 1205 BetaPlate liquid scintillation counter.
The data are used to calculate either the % inhibition compared to control binding (when only a single concentration of test compound is evaluated) or a Ki value (when a range of concentrations is tested). % inhibition is calculated as: [(total dpm−test compound dpm)/(total dpm−nonspecific dpm)]*100. Kd and Ki values were calculated using GraphPad PRISM data analysis program.

In another assay the target is T3, mu opioid receptor (Rattus norvegicus, UniProt P33535).
T3 construct: from tissue; host or cells: forebrain of male Wistar rats
Nature of the assay: Rat Brain Mu Opioid Receptor Binding Assay (and Version 2a, [3H]DAMGO). The conditions noted are these: rat forebrain membranes, margin of error 10-20%, read-out: r Ki μ. How it is done: as §1, with “mu-opioid” for “delta opioid”, “Following incubation with the delta selective peptide ligand ˜4 nM [^3H]DPDPE at 25° C. for 2.5 h in a 96-well plate with total volume of 1 mL, the plate contents are filtered through Wallac filtermat B sheets on a Tomtec 96-well harvester.” left out, “(pH7.4),” for “(pH 7.4),”
The data are used to calculate either the % inhibition compared to control binding (when only a single concentration of test compound is evaluated) or a Ki value (when a range of concentrations is tested). % inhibition is calculated as: [(total dpm-test compound dpm)/(total dpm-nonspecific dpm)]*100. Kd and Ki values were calculated using GraphPad PRISM data analysis program.
Male, Wistar rats (150-250 g, VAF, Charles River, Kingston, N.Y.) were killed by cervical dislocation, and their brains removed and placed immediately in ice-cold Tris HCl buffer (50 mM, pH 7.4). The forebrains were separated from the remainder of the brain by a coronal transection, beginning dorsally at the colliculi and passing ventrally through the midbrain-pontine junction. After dissection, the forebrains were homogenized in Tris buffer in a Teflon®-glass homogenizer. The homogenate was diluted to a concentration of 1 g of forebrain tissue per 80 mL Tris and centrifuged at 39,000×g for 10 min. The pellet was resuspended in the same volume of Tris buffer containing 5 mM MgCl2 with several brief pulses from a Polytron homogenizer. This particulate preparation was used for the mu opioid binding assay. Following incubation with 0.8 nM of the mu selective ligand [^3H]DAMGO at 25° C. for 2.5 h in a 96-well plate with total 1 mL, the plate contents were filtered through Wallac filtermat B sheets on a Tomtec 96-well harvester. The filters were rinsed three times with 2 mL of 10 mM HEPES (pH 7.4), and dried in a microwave oven. To each sample area, Betaplate Scint scintillation fluid (LKB) was added and the resulting radioactivity quantified on a LKB (Wallac) 1205 BetaPlate liquid scintillation counter. Kd and Ki values were calculated using the GraphPad PRISM data analysis program.

The target of assay [1] is T4, mu opioid receptor (CHO-hMOR cell membranes) (Homo sapiens, UniProt P35372).
T4 construct: purchased Receptor Biology, Inc. (Baltimore, Md.); host or cells: CHO cells (recombinant expression)
Nature of the assay: Mu Opioid Receptor Functional Assay: [35S]GTPγS Binding in CHO-hMOR Cell Membranes, Versions 1 and 2. In kind it is biochemical. Conditions: for MOR GTP binding assay_v1 (% I): version 1, % inhibition of agonist-stimulated GTPγS binding; for MOR GTP assay_v1 % of Basal: version 1, basal binding = 100%. An outline of the steps:
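Agonist-stimulated [35S]GTPγS (0.5 nM) binding measured by SPA in human MOR CHO membranes, buffer pH 7.6 with 100 mM NaCl, 5 mM MgCl2. Antagonist mode: % inhibition of stimulation by 1 μM SNC80; agonist mode: EC50 fitted. Basal binding without agonist, non-specific with 10 μM cold GTPγS.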
In general terms: GTPγS resists hydrolysis and so accumulates on activated G proteins.

Assay [2] concerns the target T5, human delta subtype 2 opioid receptor (Homo sapiens, UniProt P41143).
T5 construct: purchased Perkin Elmer RBHODM400UA; host or cells: Chinese Hamster Ovary cells (recombinant expression)
The assay is described as follows: Human Delta Opioid Receptor Binding Assay (CHO membranes, 3H-Naltrindole). Conditions: read-out: hKi δ. An outline of the steps:
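Compound displacement of tritiated naltrindole (6 nM working dilution) measured by scintillation counting after GF/C filtration. Receptor source: recombinant CHO membranes; buffer 50 mM Tris, 5 mM MgCl2, pH 7.5; 30 min room-temperature incubation. 1 μM cold naltrindole sets nonspecific binding.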

In assay [3] the test system is novel environment-stressed mice. Nature of the assay: In Vivo Assay-Stress-Induced Fecal Output (Fecal Output for 1 hr). Details: species or system mouse. Conditions: 30 mg/kg oral, 1 hr; for response vs control in vivo at 30 mg/kg: Mus musculus, po, 1 h. An excerpt:
This assay evaluates the fecal output in novel environment-stressed mice to that of acclimated controls.
Methods: Adult, male, Crl:CD-1(ICR) mice, weighing ˜30-35 g were used in these studies, with a minimum of 10 mice per dose group. One group of mice was assigned as acclimated, or “non-stressed” controls. These control mice were transported from colony housing, where they were housed 3/cage in polycarbonate cages with access to food and water ad lib. to the procedure room. The mice were removed from their home cages and individually housed in 20 cm wide×20 cm deep×15 cm tall cages, equipped with a wire mesh bottom where they remained for a 16-18 hr period of acclimation to their novel environment. Mice were allowed access to food and water ad lib. during acclimation. The other groups of mice were assigned as non-acclimated, or “stressed” treatment groups. Each mouse in each group was weighed and vehicle, or test compound, was intragastrically administered by oral intubation in 0.5% methylcellulose. Mice were allowed access to water only ad lib. during the test period. After compound administrations, acclimated (control) as well as non-acclimated (stressed) mice were individually housed in a 20 cm wide×20 cm deep×15 cm tall cage, with a wire mesh bottom. An absorbant cardboard is placed beneath the cages. The number of fecal pellets excreted by each mouse was determined at hourly intervals following placement of the mice in the individual cages. Raw Data=# of fecal pellets/mouse/hr. […]

Read-outs that look alike come from different tables or passages of the source.

T3 sequence (P33535 whole entry): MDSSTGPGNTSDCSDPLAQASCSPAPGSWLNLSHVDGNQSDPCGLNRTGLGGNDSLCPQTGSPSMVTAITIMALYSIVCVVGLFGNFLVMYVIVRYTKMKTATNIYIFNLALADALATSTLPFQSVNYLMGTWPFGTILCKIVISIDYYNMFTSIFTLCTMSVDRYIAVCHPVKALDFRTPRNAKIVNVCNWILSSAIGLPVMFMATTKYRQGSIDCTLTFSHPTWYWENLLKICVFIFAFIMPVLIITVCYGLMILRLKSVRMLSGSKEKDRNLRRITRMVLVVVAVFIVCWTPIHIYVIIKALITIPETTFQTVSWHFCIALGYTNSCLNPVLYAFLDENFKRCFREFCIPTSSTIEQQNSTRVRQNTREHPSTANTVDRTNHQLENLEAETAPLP
T2 sequence (P33533 whole entry): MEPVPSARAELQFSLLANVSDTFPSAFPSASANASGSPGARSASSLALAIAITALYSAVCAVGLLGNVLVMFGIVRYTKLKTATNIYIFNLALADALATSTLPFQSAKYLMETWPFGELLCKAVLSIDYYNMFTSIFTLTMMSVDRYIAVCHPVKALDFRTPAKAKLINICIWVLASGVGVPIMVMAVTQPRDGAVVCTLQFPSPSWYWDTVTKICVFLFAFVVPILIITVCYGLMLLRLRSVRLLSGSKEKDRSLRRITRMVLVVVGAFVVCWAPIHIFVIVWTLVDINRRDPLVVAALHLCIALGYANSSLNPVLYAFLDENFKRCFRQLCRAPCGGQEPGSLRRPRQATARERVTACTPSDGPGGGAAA
T1 sequence (P35372 whole entry): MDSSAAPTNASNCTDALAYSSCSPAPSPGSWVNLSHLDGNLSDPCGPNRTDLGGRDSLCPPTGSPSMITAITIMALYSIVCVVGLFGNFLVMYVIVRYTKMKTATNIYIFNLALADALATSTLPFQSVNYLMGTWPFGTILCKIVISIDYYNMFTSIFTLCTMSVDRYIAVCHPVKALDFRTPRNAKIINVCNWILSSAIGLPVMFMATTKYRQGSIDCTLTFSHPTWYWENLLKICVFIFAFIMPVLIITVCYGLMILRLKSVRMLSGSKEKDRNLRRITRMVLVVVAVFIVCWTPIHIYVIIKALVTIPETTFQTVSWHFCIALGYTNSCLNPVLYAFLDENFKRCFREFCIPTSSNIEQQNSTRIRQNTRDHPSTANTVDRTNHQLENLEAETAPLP
T4 sequence (P35372 whole entry): as above
T5 sequence (P41143 whole entry): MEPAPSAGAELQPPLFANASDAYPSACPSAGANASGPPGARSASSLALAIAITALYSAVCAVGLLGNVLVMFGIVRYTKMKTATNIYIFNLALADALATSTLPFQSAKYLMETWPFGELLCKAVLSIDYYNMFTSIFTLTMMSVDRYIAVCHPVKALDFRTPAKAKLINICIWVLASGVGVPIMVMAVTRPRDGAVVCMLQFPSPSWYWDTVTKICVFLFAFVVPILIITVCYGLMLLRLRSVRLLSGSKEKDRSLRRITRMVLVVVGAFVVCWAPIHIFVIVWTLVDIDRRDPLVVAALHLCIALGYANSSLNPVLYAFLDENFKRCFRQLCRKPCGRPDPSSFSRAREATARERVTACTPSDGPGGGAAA

On to `C[C@H](c1nc(-c2ccccc2)c[nH]1)N(C)C(=O)[C@@H](N)Cc1ccc(O)cc1` [Cpd 210], for which the Ki at human mu opioid receptor was found to be 0.29 nM; on delta opioid receptor it was 1860 nM; at mu opioid receptor it was 420 nM. Further, the “MOR GTP binding assay_v1 (% I)” value in assay [1] amounted to 10.00%. Further, the “MOR GTP assay_v1 % of Basal” value in assay [1] was determined as 414.00%.
For the molecule `Cc1cc(O)cc(C)c1C[C@H](N)C(=O)N[C@@H](Cc1ccccc1)c1nc(-c2ccccc2)c[nH]1` [Cpd 177], the Ki at delta opioid receptor came to 255 nM; on mu opioid receptor, 13.4 nM. Further, the “MOR GTP binding assay_v1 (% I)” value in assay [1] is recorded as 23.00%. Further, the “MOR GTP assay_v1 % of Basal” value in assay [1] worked out at 625.00%.
With `N[C@@H](Cc1ccc(O)cc1)C(=O)N(Cc1nc(-c2ccccc2)c[nH]1)CC1CC1` [Cpd 193], the values for the Ki (in assay [2]; on delta opioid receptor; on mu opioid receptor) were > 10000 nM, 182 nM and 21.1 nM, respectively. In assay [1], the “MOR GTP binding assay_v1 (% I)” value is 54.00%. Further, the “MOR GTP assay_v1 % of Basal” value in assay [1] turned out to be 182.00%.
Take `Cc1cc(O)cc(C)c1C[C@H](N)C(=O)N[C@@H](COCc1ccccc1)c1nc(-c2ccccc2)c[nH]1` [Cpd 175]: the Ki at delta opioid receptor is 166 nM. At mu opioid receptor, the Ki was found to be 3.6 nM. Moreover, in assay [1], the “MOR GTP binding assay_v1 (% I)” value came out at 53.00% and the “MOR GTP assay_v1 % of Basal” value stood at 471.00%.
For `CN(Cc1nc(-c2ccccc2)c[nH]1)C(=O)[C@@H](N)Cc1ccc(O)cc1` [Cpd 198], the Ki is > 10000 nM in assay [2], 140 nM at human mu opioid receptor, 5180 nM on delta opioid receptor and 152 nM on mu opioid receptor.
Take `Cc1cc(O)cc(C)c1C[C@H](N)C(=O)N[C@@H](Cc1cccc(C#N)c1)c1nc(-c2ccccc2)c[nH]1` [Cpd 173]: at delta opioid receptor, the Ki was found to be 5070 nM. The Ki at mu opioid receptor was 45.7 nM. Besides, in assay [1], the “MOR GTP binding assay_v1 (% I)” value was 85.00% and the “MOR GTP assay_v1 % of Basal” value is 147.00%.
As to `Cc1cc(O)cc(C)c1C[C@H](N)C(=O)N[C@H](C)c1nc(-c2ccccc2)c[nH]1` [Cpd 208], the results for the Ki on human mu opioid receptor, at delta opioid receptor and at mu opioid receptor were 1.2 nM, 33 nM and 1.3 nM, respectively. For the same molecule, in assay [1], the “MOR GTP binding assay_v1 (% I)” value was determined as 1.00%. Besides, in assay [1], the “MOR GTP assay_v1 % of Basal” value is 475.00%.
As to `Cc1cc(C(N)=O)cc(C)c1C[C@H](N)C(=O)N(Cc1nc(-c2ccccc2)c[nH]1)C(C)C` [Cpd 178], the “Fecal Output (# pellets) cpd” value in assay [3] (novel environment-stressed mice) stood at 5.5 pellets. For the same molecule, the response vs control in vivo at 30 mg/kg stood at 172% in assay [3] (relative to acclimated control, read-out: Fecal Output cpd % control) and 62.5% in assay [3] (relative to novel environment stress (NES) vehicle group, read-out: Fecal Output cpd % NES). Further, the Ki worked out at 104 nM on delta opioid receptor and 0.6 nM on mu opioid receptor. Moreover, the “MOR GTP binding assay_v1 (% I)” value in assay [1] was 10.00%.
Take `N[C@@H](Cc1ccc(O)cc1)C(=O)N(Cc1nc(-c2ccccc2)c[nH]1)C1CCCCC1` [Cpd 191]: the values for the Ki (in assay [2]; at delta opioid receptor; on mu opioid receptor) were > 10000 nM, 727 nM and 189 nM, respectively.
On to `CCNC(=O)c1cc(C)c(C[C@H](N)C(=O)N(C)[C@@H](C)c2nc(-c3ccccc3)c[nH]2)c(C)c1` [Cpd 181], for which the Ki at delta opioid receptor came out at 341 nM; on mu opioid receptor it was 1.3 nM. Besides, in assay [1], the “MOR GTP binding assay_v1 (% I)” value came out at 1.00%.
Turning to `C[C@@H](c1nc(-c2ccccc2)c[nH]1)N(C)C(=O)[C@@H](N)Cc1ccc(O)cc1` [Cpd 211], the Ki at delta opioid receptor turned out to be 180 nM. Further, the Ki on mu opioid receptor was 5.9 nM. In assay [1], the “MOR GTP binding assay_v1 (% I)” value was 10.00% and the “MOR GTP assay_v1 % of Basal” value is recorded as 371.00%.
Turning to `Cc1cc(O)cc(C)c1C[C@H](N)C(=O)N[C@@H](C)c1nc(-c2ccccc2)c[nH]1` [Cpd 209], the Ki on human mu opioid receptor was 23 nM; on delta opioid receptor it was 708 nM; on mu opioid receptor it was 17 nM. For the same molecule, in assay [1], the “MOR GTP binding assay_v1 (% I)” value is reported as 10.00%. Moreover, the “MOR GTP assay_v1 % of Basal” value in assay [1] came to 295.00%.
